Reference: patent publication US20080008707A1, “Denatured collagen peptides and uses thereof” (Cell-Matrix, Inc., priority 2006, published 2008)
Marks after values point to notes of the source that are not given here. Square brackets hold non-standard residues; d marks the D form. Ends that are not written are not given here. Hyp = O=C(O)[C@@H]1C[C@@H](O)CN1

How the values were obtained:
[1] = system: D93 binding to human denatured-collagen IV; experiment: Competition ELISA: synthetic peptides blocking D93 binding to heat denatured collagen IV
Procedure: (§1) The ELISA was conducted as follows: wells of a 96-well microtiter plate (Immulon, 4 HBX flat-bottomed, Thermo Electron Corporation, Waltham, Mass.) were coated with 100 μL/well of dn-collagen IV at 10 μg/mL in Phosphate Buffered Saline (PBS) overnight at 4° C. The plate was washed 3 times (3×) with PBS containing 0.05% (v/v) Tween-20 (PBST) using an automated plate washer.
(§2) The plate was blocked by adding 300 μL/well of 1% BSA (w/v) in PBS for 1 hour at 25° C. followed by washing 3× in PBST as above.
(§3) Solutions of D93 or HUI77 were prepared with various concentrations of peptide or antibody inhibitor and incubate for 15 minutes. D93 or HUI77 was prepared at 200 ng/mL in 1% BSA/PBS.
(§4) For antibody blocking studies using synthetic peptides: peptide inhibitor stock solutions were prepared at 2 mM, 0.2 mM, 0.02 mM, and 0.002 mM in 1% BSA/PBS. 500 μL of a 2 mM peptide solution in 1% BSA/PBS was prepared and diluted 1:10 in 500 μL a total of three times to make peptide inhibitor concentrations.
(§5) 200 μL of D93 or HUI77 at 200 ng/mL solution was combined with 200 μL of peptide or antibody inhibitor solution and incubated for 15 minutes at room temperature.
(§6) D93 or HUI77 with various concentrations of inhibitors (2 mM, 0.2 mM, 0.02 mM, and 0.002 mM) were added to microplate wells and incubated for 1 hour at 25° C. The plate was washed 3× in PBST as above.
(§7) To each microtiter plate well, 100 μL of diluted anti-human IgG or anti-mouse IgM conjugated to horseradish peroxidase (HRP) in PBST was added and incubated for one hour at 25° C.: (a) for D93: Goat anti-human IgG-HRP (Jackson ImmunoResearch, Catalog No. 109-035-088) was used at 1:20,000 and (b) for HUI77: Goat anti-mouse IgM-HRP was used at 1:4,000. Plates were washed 3× in PBST as above.
(§8) Tetramethylbenzidine (TMB) substrate (100 μL; Pierce Chemicals)) was added to wells and the plates were allowed to develop at room temperature for 15 minutes in the dark. Substrate development was stopped by adding 50 μL/well of 2N H2SO4. The microtiter […] plates were read at 450 nm within five minutes of adding the H2SO4. Reactivity was measured with a microplate reader (Molecular Devices, Sunnyvale, Calif.) at a wavelength of 450 nm and analyzed using SOFTMax® PRO4.0 (Molecular Devices). All samples were tested in triplicate.
(§9) Individual peptides with amino acid substitutions and deletions were also synthesized based on the primary and secondary peptide arrays. […] The inhibitory activity of the individual peptides was tested by ELISA as previously described to measure binding of D93 or HUI77 to denatured collagen where peptides and antibodies were prepared at a 2× concentration and pre-incubated for 15 minutes prior to adding to microtiter plates coated with dn-collagen.
(§10) 96-well plates were coated with 100 μL/well of denatured (dn) collagen IV at 10 μg/mL in phosphate buffered saline (PBS) overnight at 4° C. followed by washing the plates in an automated plate washer 3 times in PBS containing 0.05% (v/v) Tween-20 (PBST). Non-specific binding was prevented by blocking the wells by adding 300 μL/well of 1% bovine serum albumin (BSA) (w/v) in PBS for 1 hour (hr) at 25° C. The plates were washed as above.
(§11) Solutions of D93 and HUI77 antibodies were prepared with various concentrations of inhibitor and incubated for 15 minutes. Briefly, 20 mLs of D93 or HUI77 were prepared at 200 ng/mL in 1% BSA/PBS. Solutions of peptide inhibitors (2 mM, 0.2 mM, […]) were prepared in 1% BSA/PBS. Equal volumes of antibodies and peptide inhibitors were combined: 200 μL of D93 or HUI77 (200 ng/mL solution) with 200 μL of each peptide solution.
(§12) 100 μL/well of D93 or HUI77 at 100 ng/mL with various concentrations of inhibitors were added to the wells in triplicate and incubated for 1 hour at 25° C. The plates were washed as described above.
(§13) 100 μL/well of secondary horseradish peroxidase (HRP)-conjugated antibody in PBST was added to each well and incubated for 1 hour (hr) at 25° C. […]

[2] = system: HUI77 binding to denatured collagen IV; experiment: Competition ELISA: synthetic peptides blocking HUI77 binding to heat denatured collagen IV; design: species or system human
Procedure: as §1, §2, §3, §4, §5, §6, §7, §8, §9, §10, §11, §12, §13

[3] = peptide inhibitor concentration 10 μM, asterisk (*): data from a separate assay
[4] = peptide inhibitor concentration 100 μM, asterisk (*): data from a separate assay
[5] = peptide inhibitor concentration 1000 μM, asterisk (*): data from a separate assay
[6] = peptide inhibitor concentration 1 μM, average of two studies, vs 1% BSA/PBS alone
[7] = peptide inhibitor concentration 10 μM, average of two studies, vs 1% BSA/PBS alone
[8] = peptide inhibitor concentration 100 μM, average of two studies, vs 1% BSA/PBS alone
[9] = peptide inhibitor concentration 1000 μM, average of two studies, vs 1% BSA/PBS alone
[10] = peptide inhibitor concentration 10 μM, average of two studies
[11] = peptide inhibitor concentration 100 μM, average of two studies
[12] = peptide inhibitor concentration 1000 μM, average of two studies

## LPGFPG [SEQ ID NO: 38, reference compound]
[1]; peptide inhibitor concentration 1 μM, asterisk (*): data from a separate assay
  % INHIBITION OF BINDING OF D93 TO HUMAN DENATURED-COLLAGEN IV: 5.4* %
[1]; [3]
  % INHIBITION OF BINDING OF D93 TO HUMAN DENATURED-COLLAGEN IV: 7.8* %
[1]; [4]
  % INHIBITION OF BINDING OF D93 TO HUMAN DENATURED-COLLAGEN IV: 8.3* %
[1]; [5]
  % INHIBITION OF BINDING OF D93 TO HUMAN DENATURED-COLLAGEN IV: 11.6* %
[2]; [3]
  % INHIBITION OF BINDING OF HUI77 TO DENATURED COLLAGEN IV: 10.2* %
[2]; [4]
  % INHIBITION OF BINDING OF HUI77 TO DENATURED COLLAGEN IV: 0* %
[2]; [5]
  % INHIBITION OF BINDING OF HUI77 TO DENATURED COLLAGEN IV: 3.7* %

## LPGFPGC [SEQ ID NO: 37, reference compound]
[1]; [6]
  % INHIBITION OF BINDING OF D93 TO HUMAN DENATURED-COLLAGEN IV: 8%
[1]; [7]
  % INHIBITION OF BINDING OF D93 TO HUMAN DENATURED-COLLAGEN IV: 3.5%
[1]; [8]
  % INHIBITION OF BINDING OF D93 TO HUMAN DENATURED-COLLAGEN IV: 1%
[1]; [9]
  % INHIBITION OF BINDING OF D93 TO HUMAN DENATURED-COLLAGEN IV: 6.5%
[2]; [10]
  % INHIBITION OF BINDING OF HUI77 TO DENATURED COLLAGEN IV: 7%
[2]; [11]
  % INHIBITION OF BINDING OF HUI77 TO DENATURED COLLAGEN IV: 7.5%
[2]; [12]
  % INHIBITION OF BINDING OF HUI77 TO DENATURED COLLAGEN IV: 8.5%

## LPGLPG (L[Hyp]GL[Hyp]G) [SEQ ID NO: 25]
[1]; [6]
  % INHIBITION OF BINDING OF D93 TO HUMAN DENATURED-COLLAGEN IV: 8%
[1]; [7]
  % INHIBITION OF BINDING OF D93 TO HUMAN DENATURED-COLLAGEN IV: 6.5%
[1]; [8]
  % INHIBITION OF BINDING OF D93 TO HUMAN DENATURED-COLLAGEN IV: 6.5%
[1]; [9]
  % INHIBITION OF BINDING OF D93 TO HUMAN DENATURED-COLLAGEN IV: 46.5%
[2]; [10]
  % INHIBITION OF BINDING OF HUI77 TO DENATURED COLLAGEN IV: 6%
[2]; [11]
  % INHIBITION OF BINDING OF HUI77 TO DENATURED COLLAGEN IV: 9.5%
[2]; [12]
  % INHIBITION OF BINDING OF HUI77 TO DENATURED COLLAGEN IV: 17.5%

## LPGPPGPPG (LPGP[Hyp]GP[Hyp]G) [SEQ ID NO: 21]
[1]; peptide inhibitor concentration 1 μM, average of two studies, vs 1% BSA/PBS alone, listed as 20 (21), 1 µM
  % INHIBITION OF BINDING OF D93 TO HUMAN DENATURED-COLLAGEN IV: 13%
[1]; peptide inhibitor concentration 10 μM, average of two studies, vs 1% BSA/PBS alone, listed as 20 (21), 10 µM
  % INHIBITION OF BINDING OF D93 TO HUMAN DENATURED-COLLAGEN IV: 35.5%
[1]; peptide inhibitor concentration 100 μM, average of two studies, vs 1% BSA/PBS alone, listed as 20 (21), 100 µM
  % INHIBITION OF BINDING OF D93 TO HUMAN DENATURED-COLLAGEN IV: 85.5%
[1]; peptide inhibitor concentration 1000 μM, average of two studies, vs 1% BSA/PBS alone, listed as 20 (21), 1000 µM
  % INHIBITION OF BINDING OF D93 TO HUMAN DENATURED-COLLAGEN IV: 92.5%
[2]; [10]
  % INHIBITION OF BINDING OF HUI77 TO DENATURED COLLAGEN IV: 6.5%
[2]; peptide inhibitor concentration 100 μM, average of two studies, listed as 20 (21), 100 µM
  % INHIBITION OF BINDING OF HUI77 TO DENATURED COLLAGEN IV: 18%
[2]; peptide inhibitor concentration 1000 μM, average of two studies, listed as 20 (21), 1000 µM
  % INHIBITION OF BINDING OF HUI77 TO DENATURED COLLAGEN IV: 86%

## LPGPPGPPG [SEQ ID NO: 22]
[1]; peptide inhibitor concentration 1 μM, average of two studies, vs 1% BSA/PBS alone, listed as 18 (22), 1 µM
  % INHIBITION OF BINDING OF D93 TO HUMAN DENATURED-COLLAGEN IV: 6%
[1]; peptide inhibitor concentration 10 μM, average of two studies, vs 1% BSA/PBS alone, listed as 18 (22), 10 µM
  % INHIBITION OF BINDING OF D93 TO HUMAN DENATURED-COLLAGEN IV: 5%
[1]; peptide inhibitor concentration 100 μM, average of two studies, vs 1% BSA/PBS alone, listed as 18 (22), 100 µM
  % INHIBITION OF BINDING OF D93 TO HUMAN DENATURED-COLLAGEN IV: 3%
[1]; peptide inhibitor concentration 1000 μM, average of two studies, vs 1% BSA/PBS alone, listed as 18 (22), 1000 µM
  % INHIBITION OF BINDING OF D93 TO HUMAN DENATURED-COLLAGEN IV: 17.5%
[2]; peptide inhibitor concentration 100 μM, average of two studies, listed as 18 (22), 100 µM
  % INHIBITION OF BINDING OF HUI77 TO DENATURED COLLAGEN IV: 9%
[2]; peptide inhibitor concentration 1000 μM, average of two studies, listed as 18 (22), 1000 µM
  % INHIBITION OF BINDING OF HUI77 TO DENATURED COLLAGEN IV: 6%
